Assays:
DU145 cells = experiment: cellular vacuolization morphology with autophagy inhibitors; type: cell-based, human; details: combination with ESK981, six hours
Description: The nature of the ESK981-associated cellular vacuolization was investigated in combination with various autophagic pathway inhibitors.

CXCL10 in VCaP cells = experiment: human CXCL10 ELISA of conditioned medium; type: cell-based; details: VCaP cells, 24 hours
Protocol: Conditioned medium was collected after 24 hours of drug incubation. ELISA was performed using a human CXCL10 ELISA kit (Cat No. KAC2361, ThermoFisher), or a mouse CXCL10 ELISA kit (Cat No. ab214563, Abcam) according to the manufacturer's instructions.

PC3 and DU145 cells = experiment: autophagic flux detection (GFP-LC3-RFP-LC3ΔG probe); type: cell-based, human; details: PC3 or DU145 cells, 24 hours
Protocol: (§1) For autophagic flux detection, 10,000 cells were plated in 96-well plates and incubated with various compounds in complete medium for 24 hours. GFP and RFP fluorescence intensities were measured on a TECAN M1000 plate reader.

[1] = test system: B cell non-Hodgkin's lymphoma; details: cited from earlier work
[2] = test system: lysosomes in VCaP, LNCaP, PC3 and DU145 cells; experiment: LysoTracker Green flow cytometry; type: cell-based, human; details: bafilomycin A1 100 nM with ESK981 300 nM, 24 hours
Protocol: Cells were grown in 6-well plates and treated with various drugs. After 24 hours, cells were stained with LysoTracker® Green DND-26 (Invitrogen), and green fluorescence signal was analyzed by flow cytometry.

[3] = test system: GFP-LC3-RFP-LC3ΔG-expressing Myc-CaP cells; experiment: autophagic flux detection in Myc-CaP cells; type: cell-based, mouse; details: 24 hours
Protocol: as §1

[4] = test system: prostate cancer cell lines (VCaP, LNCaP, 22RV1, LNCaP-AR, PC3, DU145); experiment: long-term survival assay (14 days, crystal violet); type: cell-based, human; details: panel of prostate cancer cell lines, two weeks
Protocol: Single cell suspensions were seeded into 96-well plates at a density of 1,000-30,000 cells per well. Long-term survival was determined after 14 days of drug incubation. Viable cells were fixed with 4% formaldehyde and subsequently stained with 1% crystal violet. IC50 was calculated using GraphPad Prism.

[5] = test system: LC3-II in prostate cancer cell lines; experiment: LC3 lipidation western blot; type: cell-based, human; details: VCaP cells, 24 hours
Protocol: Cell lysates were harvested in Pierce RIPA Lysis buffer (Thermo Scientific) containing protease inhibitor cocktail tablets (Roche) and phosphatase inhibitor cocktail (Millipore). Protein concentration was measured using the DC Protein Assay (Bio-Rad) to ensure an equal amount of protein was loaded onto a gel. The denatured lysates were separated on NuPage 4-12% Bis-Tris Midi Protein gels (Novex) and transferred to 0.45-μm PVDF transfer membrane (Immobilon) using a TransBlot Turbo dry transfer machine (Bio-Rad). The membrane was incubated in blocking buffer (5% non-fat dry milk, Tris-buffered saline with 0.1% Tween 20) for 1 hour at room temperature. The membrane was then incubated with the listed antibodies for 1 hour at room temperature, followed by overnight incubation at 4° C. Chemiluminescent detection using ECL Prime (Amersham) and HyBlot CL autoradiography film (Denville Scientific) was used to visualize the blots. Antibodies used in the immunoblotting assays were against ATG5 (Cat No. 12994S, Cell Signaling Technology), ATG7 (Cat No. 8558S, Cell Signaling Technology), ULK1 (Cat No. 8054S, Cell Signaling Technology), Beclin1 (Cat No. 4122S, Cell Signaling Technology), FIP200 (Cat No. 12436S, Cell Signaling Technology), LC3A/B (Cat No. 127415, Cell Signaling Technology), PIKfyve (Cat No. AF7885, R&D Systems), and GAPDH (Cat No. 3683S, Cell Signaling Technology).

[6] = test system: DU145 prostate cancer cells; experiment: cell viability screen with a 167-compound tyrosine kinase inhibitor library; type: cell-based, human; details: 300 nM
Protocol: FIG. 1: ESK981 inhibits the growth of diverse preclinical models of prostate cancer and is associated with a unique vacuolization morphology. • (a) The percentage viabilities of DU145 cells treated with 300 nM ESK981 or 167 other tyrosine kinase inhibitors when compared to a vehicle control. The top five most inhibitory compounds, as well as cabozantinib and crizotinib (highlighted in orange), and their respective targets are listed in the table. ESK981 is highlighted in red. • (b) Morphological differences of nuclear-restricted RFP-expressing DU145 cells treated with 300 nM ESK981, crizotinib, or cabozantinib. • (c) A long-term survival assay was used to calculate the half-maximum inhibitory concentration (IC50) after two weeks of incubation with the serial dilutions of indicated drugs. (Top) Long-term survival assays of VCaP prostate cancer cells exposed to MTKIs. (Bottom) IC50 of ESK981, crizotinib, and cabozantinib in a panel of prostate cancer cell lines. • (d) ESK981 was effective against enzalutamide (Enza)-resistant cell lines. […] Long-term survival (two weeks) was assayed by absorbance of crystal violet at OD590. • (e) VCaP-RFP cells were cultured for three days in ultralow attachment plates to form 3D tumor spheroids prior to the indicated drug treatments. […] Fluorescence intensity of 3D spheroids was measured by IncuCyte ZOOM. • (f) Castration-resistant VCaP tumors were established subcutaneously in castrated SCID mice, and mice were randomized into three groups, which received vehicle, 30 mg/kg, or 60 mg/kg ESK981 by oral gavage once per day for the indicated dosing schedule. Tumor volumes were monitored by a digital caliper twice per week. Data were analyzed by unpaired t test and presented as mean±SEM. *p<0.05; **p<0.01. • (g) AR^+ prostate patient-derived xenograft (PDX) MDA-PCa-146-12 were implanted subcutaneously in non-castrated SCID mice, and mice were randomized into two groups receiving either once daily vehicle or 30 mg/kg ESK981 for five days each week. […] Tumor volumes were monitored twice per week. […]

advanced prostate cancer = details: two phase III trials; cited from earlier work
metastatic CRPC (mCRPC) = details: men with metastatic CRPC; cited from earlier work

Cn1cnc(N)c2ncnc1-2 [3-methyladenine]
effect on the cellular vacuolization effects of ESK981 (DU145 cells): partially negated

CCC(=O)N1CCN(c2ccc(-n3c(=O)ccc4cnc5ccc(-c6cnc7ccccc7c6)cc5c43)cc2C(F)(F)F)CC1 [Torin1]
CXCL10 induction / secretion (CXCL10 in VCaP cells): marginally increased CXCL10 secretion, but only at higher concentrations | autophagic flux (GFP/RFP ratio) (PC3 and DU145 cells): decreased the GFP/RFP ratio

Cc1cccc(/C=N/Nc2cc(N3CCOCC3)nc(OCCc3ccccn3)n2)c1 [apilimod]
tumor inhibition [1]: tumor inhibitory effects

CO/C1=C\C(C)=C\[C@@H](C)[C@@H](O)[C@@H](C)C/C(C)=C/C=C/[C@H](OC)[C@@H]([C@@H](C)[C@@H](O)[C@H](C)[C@@]2(O)C[C@@H](O)[C@H](C)[C@@H](C(C)C)O2)OC1=O [bafilomycin A1]
effect on the cellular vacuolization effects of ESK981 (DU145 cells): completely blocked | effect on the ESK981-increased lysosome quantity [2]: readily neutralized | autophagic flux (GFP/RFP ratio) (PC3 and DU145 cells): low autophagic flux | autophagic flux [3]: inhibited

CCN(CC)CCCC(C)Nc1ccnc2cc(Cl)ccc12 (centres unmarked) [chloroquine]
effect on the cellular vacuolization effects of ESK981 (DU145 cells): completely blocked | autophagic flux [3]: inhibited

C[C@@H](Oc1cc(-c2cnn(C3CCNCC3)c2)cnc1N)c1c(Cl)ccc(F)c1Cl [crizotinib, reference compound]
IC50 in words [4]: micromolar | induction of LC3-II ([5]; 300 nM): did not induce an increase in LC3-II | induction of LC3-II ([5]; 1 μM): only weakly induced an increase in LC3-II | growth inhibition (cell viability) [6]: no such growth inhibitory effects

Nc1ccn([C@@H]2O[C@H](CO)[C@@H](O)C2(F)F)c(=O)n1 [gemcitabine]
CXCL10 induction / secretion (CXCL10 in VCaP cells): robust CXCL10 inducer

ipilimumab: CTLA4 inhibitor
overall survival (advanced prostate cancer): failed to improve overall survival

pembrolizumab: PD-1 inhibitor
response rates (metastatic CRPC (mCRPC)): 3-5%

Reference: patent US20230364084A1, “METHODS FOR PREVENTING OR TREATING CONDITIONS RELATED TO PIKFYVE ACTIVITY” (The Regents of the University of Michigan, priority 2020, published 2023)
